Reference: PMC5673865, “Characterization of a beta-glucosidase from Bacillus licheniformis and its effect on bioflocculant degradation” (AMB Express, 2017)

Key:
Bgl.bli1 [1] = molecular target: T1, Bgl.bli1 (Bacillus licheniformis, UniProt Q65D83); experiment: pNPG hydrolysis; type: biochemical; details: standard assay, no glucose added
T1 construct: gene BL01920; cloning primers encode start MARQTW and end TEEFRYK
T1 sequence (Q65D83 1-478): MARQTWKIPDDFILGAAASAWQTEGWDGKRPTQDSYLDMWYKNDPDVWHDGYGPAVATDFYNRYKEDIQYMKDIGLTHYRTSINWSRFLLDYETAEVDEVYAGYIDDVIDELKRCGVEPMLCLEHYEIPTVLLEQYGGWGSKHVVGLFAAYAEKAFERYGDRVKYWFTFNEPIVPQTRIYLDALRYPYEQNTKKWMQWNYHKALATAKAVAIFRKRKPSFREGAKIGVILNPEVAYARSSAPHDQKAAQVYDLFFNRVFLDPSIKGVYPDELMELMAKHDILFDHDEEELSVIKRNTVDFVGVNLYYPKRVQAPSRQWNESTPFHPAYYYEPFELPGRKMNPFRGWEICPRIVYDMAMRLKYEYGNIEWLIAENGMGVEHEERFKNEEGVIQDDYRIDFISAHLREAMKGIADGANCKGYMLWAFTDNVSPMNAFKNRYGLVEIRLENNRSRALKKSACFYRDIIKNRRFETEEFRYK

Bgl.bli1 [2] = molecular target: T1, Bgl.bli1; experiment: pNPG hydrolysis with added glucose; type: biochemical; details: substrate pNPG, called competitive by the authors
Description: pNPG hydrolysis with added glucose on Bgl.bli1

O=[N+]([O-])c1ccc(O[C@@H]2O[C@H](CO)[C@@H](O)[C@H](O)[C@H]2O)cc1 [p-nitrophenyl-β-D-glucopyranoside]
pNPG hydrolysis (Bgl.bli1 [1]): Bgl.bli1 activity was determined by measuring the hydrolysis of p-nitrophenyl-β-D-glucopyranoside (pNPG)

OC[C@H]1OC(O)[C@H](O)[C@@H](O)[C@@H]1O (some centres unmarked) [glucose]
Relative activity (%) at 10% (w/w) glucose (Bgl.bli1 [2]): 49.26%
